Columns and labels:
NUAK1(h) enzyme = molecular target: T1, NUAK1(h) enzyme (Homo sapiens, UniProt O60285); test: In vitro NUAK1 enzymatic assay (Eurofins Discovery, [γ-33P]-ATP filter assay); type: biochemical; details: 45 μM ATP, 40 min, room temperature; read-out: IC50, inhibitory effect on NUAK1 enzyme activity
T1 construct: purchased Eurofins Discovery
T1 sequence (O60285 1-661): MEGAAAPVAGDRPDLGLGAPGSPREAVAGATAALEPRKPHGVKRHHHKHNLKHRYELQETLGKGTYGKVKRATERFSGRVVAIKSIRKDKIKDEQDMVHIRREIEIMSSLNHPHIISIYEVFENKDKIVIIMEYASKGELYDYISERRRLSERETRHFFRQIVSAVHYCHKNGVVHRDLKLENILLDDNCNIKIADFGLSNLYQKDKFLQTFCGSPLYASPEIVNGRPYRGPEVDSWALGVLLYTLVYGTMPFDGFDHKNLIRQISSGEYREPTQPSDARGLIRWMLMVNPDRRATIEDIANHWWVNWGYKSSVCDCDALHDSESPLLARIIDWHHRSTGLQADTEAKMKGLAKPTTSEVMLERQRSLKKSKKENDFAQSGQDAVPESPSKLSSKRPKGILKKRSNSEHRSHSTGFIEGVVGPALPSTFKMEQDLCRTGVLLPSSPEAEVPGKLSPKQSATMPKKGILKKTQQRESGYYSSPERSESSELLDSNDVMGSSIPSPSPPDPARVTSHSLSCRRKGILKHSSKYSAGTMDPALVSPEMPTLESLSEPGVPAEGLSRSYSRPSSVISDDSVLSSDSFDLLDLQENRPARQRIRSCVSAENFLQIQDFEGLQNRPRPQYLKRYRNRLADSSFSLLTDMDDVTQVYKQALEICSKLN
Experimental: In Vitro Assay to Determine the Inhibitory Effect of Compounds in the Patent on NUAK1 Enzymatic Activity
The in vitro NUAK1 enzymatic assay was carried out at Eurofins Discovery to evaluate the inhibitory effect of the compounds presented in the invention. The assay protocol is as follow: the compound to be tested was mixed with NUAK1(h) enzyme and 300 μM […] substrate in 8 mM MOPS (pH 7.0) buffer containing 0.2 mM EDTA and incubated at room temperature. A Mg/ATP mixture containing 10 mM magnesium acetate and 45 μM [y-33P]-ATP was added to start the reaction. After incubation for 40 min at room temperature, the reaction was terminated by adding 0.5% phosphoric acid. Then, 10 μL of the reaction mix was spotted onto a P30 filter paper followed with four times of wash with 0.425% phosphoric acid solution (4 min each time), and one time wash with methanol. The filter paper was air-dried and counted in a liquid scintillation counter. The values obtained were plotted against the drug concentration and the IC50 was calculated.
Table 1 summarizes the inhibitory effect (IC50) of compounds tested on the NUAK1 enzyme activity in the present invention. ++++ indicates IC50≤10 nM; […]; ++ indicates 100 nM<IC50≤1 μM; + indicates IC50>1 μM.

NUAK2(h) enzyme = molecular target: T2, NUAK2(h) enzyme (Homo sapiens, UniProt Q9H093); test: In vitro NUAK2 enzymatic assay (Eurofins Discovery, [γ-33P]-ATP filter assay); type: biochemical; details: 45 μM ATP, 40 min, room temperature; read-out: IC50, inhibitory effect on NUAK2 enzyme activity
T2 construct: purchased Eurofins Discovery
T2 sequence (Q9H093 1-628): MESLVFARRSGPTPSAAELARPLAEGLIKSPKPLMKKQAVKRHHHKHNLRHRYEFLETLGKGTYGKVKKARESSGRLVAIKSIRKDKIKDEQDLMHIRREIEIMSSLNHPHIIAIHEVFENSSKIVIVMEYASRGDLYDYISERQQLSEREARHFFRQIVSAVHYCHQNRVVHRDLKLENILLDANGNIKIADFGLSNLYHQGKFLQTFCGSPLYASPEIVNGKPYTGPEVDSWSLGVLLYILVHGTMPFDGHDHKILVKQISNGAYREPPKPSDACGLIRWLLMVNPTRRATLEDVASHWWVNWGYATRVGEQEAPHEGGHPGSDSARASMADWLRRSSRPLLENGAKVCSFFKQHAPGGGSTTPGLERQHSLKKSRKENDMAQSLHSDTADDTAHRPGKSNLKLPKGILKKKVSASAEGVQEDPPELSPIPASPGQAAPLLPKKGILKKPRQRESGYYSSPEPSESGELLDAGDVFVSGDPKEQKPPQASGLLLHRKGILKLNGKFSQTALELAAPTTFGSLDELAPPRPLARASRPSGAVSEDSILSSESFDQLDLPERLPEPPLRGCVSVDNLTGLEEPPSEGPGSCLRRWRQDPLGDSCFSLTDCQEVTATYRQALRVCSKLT
Experimental: In Vitro Assay to Determine the Inhibitory Effect of Compounds in the Patent on NUAK2 Enzymatic Activity
The in vitro NUAK2 enzymatic assay was carried out at Eurofins Discovery to evaluate the inhibitory effect of the compounds presented in the invention. The assay protocol is as follow: the compound to be tested was mixed with NUAK2(h) enzyme and 300 […] substrate in 8 mM MOPS (pH 7.0) buffer containing 0.2 mM EDTA. A Mg/ATP mixture containing 10 mM magnesium acetate and 45 μM [γ-33P]-ATP was added to start the reaction. After incubation for 40 min at room temperature, the reaction was terminated by adding 0.5% phosphoric acid. Then 10 μL of the reaction mix was spotted onto a P30 filter paper. The filter paper was washed four times with 0.425% phosphoric acid with 4 min for each wash, and one time with methanol. The filter paper was air-dried and counted in a liquid scintillation counter. The values obtained were plotted against the drug concentration and the IC50 was calculated.
Table 1 summarizes the inhibitory effect (IC50) of compounds on the NUAK2 enzyme activity in the present invention. ++++ indicates IC50≤10 nM; +++ indicates 10 nM<IC50≤100 nM; ++ indicates 100 nM<IC50≤1 μM; + indicates IC50>1 μM.

SMILES | IC50 (NUAK1(h) enzyme) [nM] | IC50 (NUAK2(h) enzyme) [nM]
COc1cc(N2CCN(C)CC2)ccc1Nc1ncc2c(n1)N(C1CCOCC1)C(=O)NC2 [Example 33, 7-((2-methoxy-4-(4-methylpiperazin-1-yl)phenyl)amino)-1-(tetrahydro-2H-pyran-4-yl)-3,4-dihydropyrimido[4,5-d]pyrimidin-2(1H)-one] | 100 to 1000 | 100 to 1000
CN1CCN(c2ccc(Nc3ncc4cnc(=O)n(C5CCCC5)c4n3)c(Cl)c2)CC1 [Example 11, 7-((2-chloro-4-(4-methylpiperazin-1-yl)phenyl)amino)-1-cyclopentylpyrimido[4,5-d]pyrimidin-2(1H)-one] | 100 to 1000 | 100 to 1000
COc1cc(N2CCN(C)CC2)ccc1Nc1ncc2c(n1)N(C1CC1)C(=O)NC2 [Example 3] | 100 to 1000 | > 1000
COc1cc(N2CCN(C)CC2)ccc1Nc1ncc2cnc(=O)n(C3CCC3)c2n1 [Example 14, 1-cyclobutyl-7-((2-methoxy-4-(4-methylpiperazin-1-yl)phenyl)amino)pyrimido[4,5-d]pyrimidin-2(1H)-one] | 100 to 1000 | 100 to 1000
COc1cc(N2CCN(C)CC2)ccc1Nc1ncc2c(n1)N(C1CCCC1)C(=O)CO2 [Example 31, 8-cyclopentyl-2-((2-methoxy-4-(4-methylpiperazin-1-yl)phenyl)amino)-6H-pyrimido[5,4-b][1,4]oxazin-7(8H)-one] | 100 to 1000 | 100 to 1000
CN1CCN(c2ccc(Nc3ncc4cnc(=O)n(C5CCCC5)c4n3)c(OC(F)(F)F)c2)CC1 [Example 9, 1-cyclopentyl-7-((4-(4-methylpiperazin-1-yl)-2-(trifluoromethoxy)phenyl)amino)pyrimido[4,5-d]pyrimidin-2(1H)-one] | > 1000 | > 1000
COc1cc(N2CCN(C)CC2)ccc1Nc1ncc2c(C)c(C(C)=O)c(=O)n(C3CCCC3)c2n1 [Example 36, 6-acetyl-8-cyclopentyl-2-((2-methoxy-4-(4-methylpiperazin-1-yl)phenyl)amino)-5-methylpyrido[2,3-d]pyrimidin-7(8H)-one] | > 1000 | 100 to 1000
COc1cc(N2CCN(C)CC2)ccc1Nc1ncc2cncc(C3=CCCC3)c2n1 [Example 35, 8-(cyclopent-1-en-1-yl)-N-(2-methoxy-4-(4-methylpiperazin-1-yl)phenyl)pyrido[4,3-d]pyrimidin-2-amine] | 10 to 100 | 10 to 100
COc1cc(N2CCN(C)CC2)ccc1Nc1ncc2c(n1)N(C1CC1)C(=O)CC2 [Example 30] | 100 to 1000 | > 1000
CCC(=O)Nc1cccc(Oc2nc(Nc3ccc(N4CCN(C)CC4)cc3OC)ncc2I)c1 [HTH-02-006, reference compound] | 10 to 100 | 100 to 1000
COc1cc(N2CCN(C)CC2)ccc1Nc1ncc2cncc(C3CCCC3)c2n1 [Example 34, 8-cyclopentyl-N-(2-methoxy-4-(4-methylpiperazin-1-yl)phenyl)pyrido[4,3-d]pyrimidin-2-amine] | 10 to 100 | 10 to 100
COc1cc(N2CCN(C)CC2)ccc1Nc1nc(C)c2cnc(=O)n(C3CCCC3)c2n1 [Example 13, 1-cyclopentyl-7-((2-methoxy-4-(4-methylpiperazin-1-yl)phenyl)amino)-5-methylpyrimido[4,5-d]pyrimidin-2(1H)-one] | > 1000 | > 1000
CCOc1cc(N2CCN(C)CC2)ccc1Nc1ncc2cnc(=O)n(C3CCCC3)c2n1 [Example 7, 1-cyclopentyl-7-((2-ethoxy-4-(4-methylpiperazin-1-yl)phenyl)amino)pyrimido[4,5-d]pyrimidin-2(1H)-one] | > 1000 | 100 to 1000
COc1cc(N2CCNCC2)ccc1Nc1ncc2c(C)c(C(C)=O)c(=O)n(C3CCCC3)c2n1 [Example 37, 6-acetyl-8-cyclopentyl-2-((2-methoxy-4-(piperazin-1-yl)phenyl)amino)-5-methylpyrido[2,3-d]pyrimidin-7(8H)-one] | > 1000 | 100 to 1000
COc1cc(N2CCN(C)CC2)ccc1Nc1ncc2c(n1)N(C1CCCC1)C(=O)N(C)C2 [Example 4, 1-cyclopentyl-7-((2-methoxy-4-(4-methylpiperazin-1-yl)phenyl)amino)-3-methyl-3,4-dihydropyrimido[4,5-d]pyrimidin-2(1H)-one] | 100 to 1000 | 100 to 1000
CN1CCN(c2ccc(Nc3ncc4cnc(=O)n(C5CCCC5)c4n3)c(Br)c2)CC1 [Example 12, 7-((2-bromo-4-(4-methylpiperazin-1-yl)phenyl)amino)-1-cyclopentylpyrimido[4,5-d]pyrimidin-2(1H)-one] | 100 to 1000 | 100 to 1000
COc1cc(N2CCN(C)CC2)ccc1Nc1ncc2cnc(=O)n(C3CC3)c2n1 [Example 15, 1-cyclopropyl-7-((2-methoxy-4-(4-methylpiperazin-1-yl)phenyl)amino)pyrimido[4,5-d]pyrimidin-2(1H)-one] | 100 to 1000 | > 1000
CC(C)Oc1cc(N2CCN(C)CC2)ccc1Nc1ncc2cnc(=O)n(C3CCCC3)c2n1 [Example 8, 1-cyclopentyl-7-((2-isopropoxy-4-(4-methylpiperazin-1-yl)phenyl)amino)pyrimido[4,5-d]pyrimidin-2(1H)-one] | > 1000 | > 1000
COc1cc(N2CCN(C)CC2)ccc1Nc1ncc2cnc(=O)n(C3CCOCC3)c2n1 [Example 16, 7-((2-methoxy-4-(4-methylpiperazin-1-yl)phenyl)amino)-1-(tetrahydro-2H-pyran-4-yl)pyrimido[4,5-d]pyrimidin-2(1H)-one] | > 1000 | 100 to 1000
COc1cc(N2CCN(C)CC2)ccc1Nc1cc2c(cn1)cc(C#N)c(=O)n2C1CCCC1 [Example 25, 1-cyclopentyl-7-((2-methoxy-4-(4-methylpiperazin-1-yl)phenyl)amino)-2-oxo-1,2-dihydro-1,6-naphthyridine-3-carbonitrile] | > 1000 | 100 to 1000
